Experimental data from US20260083865A1, “PROSTATE SPECIFIC MEMBRANE ANTIGEN (PSMA) LIGANDS AND USE THEREOF” (priority 2022, published 2026).
Like-named read-outs stand apart in the source and are kept apart here. Blank lines part the entries; values can stand above or below the compound they belong to. Numbered stars: 1 amine (or outer) side, 2 acyl side, 3 side chain; on linkers, the order of the positions; unused ones are H or OH. Bridge positions count the residues as written; N and C are the ends. Square brackets hold non-standard residues; d marks the D form. Side chains are listed from the residue outwards. Peptide text beside a SMILES is read from it. * marks the point of attachment. DO3AM = NC(=O)CN1CCN(CC(N)=O)CCN(CC(=O)*)CCN(CC(N)=O)CC1; DOTA = O=C(O)CN1CCN(CC(=O)O)CCN(CC(=O)*)CCN(CC(=O)O)CC1; Phe(4-Cl) = N[C@@H](Cc1ccc(Cl)cc1)C(=O)O; Arg(Me) = CNC(=N)NCCC[C@H](N)C(=O)O; X1 = O=C(CC1CCN([*:1])CC1)[*:2]; Lys(Me) = CNCCCC[C@H](N)C(=O)O; Tle = CC(C)(C)[C@H](N)C(=O)O; 4Abz = Nc1ccc(C(=O)O)cc1; Nle = CCCC[C@H](N)C(=O)O; Aib = CC(C)(N)C(=O)O; Guanidino = N=C(N)N*

Assays:
[1] = target: T1, PSMA-expressing C4-2 cells (Homo sapiens, UniProt Q04609); experiment: FACS binding assay (competition with 50 nM PSM-0183); conditions: read-out: pIC50 [C4-2] CAT (converted)
T1 construct: PSMA-expressing C4-2 cells (ATCC, Cat. No. CRL-3314) were cultured in RPMI-1640; host or cells: C4-2 cells
T1 sequence (Q04609 whole entry): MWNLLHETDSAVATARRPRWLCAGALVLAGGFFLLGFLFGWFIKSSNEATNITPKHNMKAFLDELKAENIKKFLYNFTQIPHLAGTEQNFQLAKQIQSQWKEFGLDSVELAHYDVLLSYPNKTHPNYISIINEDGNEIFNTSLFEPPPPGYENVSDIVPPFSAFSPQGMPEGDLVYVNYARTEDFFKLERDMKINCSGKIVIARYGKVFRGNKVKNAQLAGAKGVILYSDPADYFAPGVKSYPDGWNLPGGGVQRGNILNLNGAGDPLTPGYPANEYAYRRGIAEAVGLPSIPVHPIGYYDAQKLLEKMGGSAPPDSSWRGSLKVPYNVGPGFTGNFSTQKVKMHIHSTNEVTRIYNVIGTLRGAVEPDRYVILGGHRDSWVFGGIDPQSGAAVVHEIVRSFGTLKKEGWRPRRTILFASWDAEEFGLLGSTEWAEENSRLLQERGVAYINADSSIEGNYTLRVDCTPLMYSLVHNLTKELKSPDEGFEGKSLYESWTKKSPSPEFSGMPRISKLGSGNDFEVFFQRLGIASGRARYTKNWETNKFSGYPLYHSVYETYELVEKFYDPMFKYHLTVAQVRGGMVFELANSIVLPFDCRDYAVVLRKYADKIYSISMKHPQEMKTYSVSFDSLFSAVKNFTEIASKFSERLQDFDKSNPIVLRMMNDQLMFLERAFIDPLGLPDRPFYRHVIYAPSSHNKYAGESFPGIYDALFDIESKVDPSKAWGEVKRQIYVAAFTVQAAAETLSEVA
Method in brief: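 Competition format: fluorescent tracer PSM-0183 (50 nM) displaced from PSMA on C4-2 cells by a test compound titration over 1 h at 4 °C. Bound tracer was quantified as flow-cytometric AF488 median fluorescence after washing. Four-parameter logistic fits of MFI data gave IC50 and pIC50.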

[2] = target: T2, Fc-fusion protein of human PSMA (hPSMA-Fc) (Homo sapiens, UniProt Q04609); experiment: Surface plasmon resonance assay (Biacore T200, single cycle kinetic); type: binding; conditions: read-out: pKD CAT (converted)
T2 construct: purchased Acro Biosystems PSA-H5264
T2 sequence (Q04609 44-750 limits assumed): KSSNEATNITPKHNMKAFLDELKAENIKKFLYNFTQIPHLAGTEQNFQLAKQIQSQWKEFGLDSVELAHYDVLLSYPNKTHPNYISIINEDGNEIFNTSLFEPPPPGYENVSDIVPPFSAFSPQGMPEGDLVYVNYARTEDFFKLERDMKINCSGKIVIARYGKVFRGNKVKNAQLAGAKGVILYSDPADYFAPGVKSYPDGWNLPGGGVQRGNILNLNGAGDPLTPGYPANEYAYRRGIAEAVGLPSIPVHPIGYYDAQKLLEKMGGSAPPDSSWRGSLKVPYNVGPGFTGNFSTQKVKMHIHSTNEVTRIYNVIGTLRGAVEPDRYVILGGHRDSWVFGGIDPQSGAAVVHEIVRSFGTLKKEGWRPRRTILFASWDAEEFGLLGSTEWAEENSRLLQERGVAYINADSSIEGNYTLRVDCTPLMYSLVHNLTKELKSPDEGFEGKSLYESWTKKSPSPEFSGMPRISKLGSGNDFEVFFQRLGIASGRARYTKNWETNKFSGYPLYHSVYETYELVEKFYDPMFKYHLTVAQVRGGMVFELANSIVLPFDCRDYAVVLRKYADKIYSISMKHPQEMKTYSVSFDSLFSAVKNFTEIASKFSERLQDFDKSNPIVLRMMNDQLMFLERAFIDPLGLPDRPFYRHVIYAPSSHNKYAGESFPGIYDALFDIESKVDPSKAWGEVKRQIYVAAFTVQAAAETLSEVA
Method in brief: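 KD, expressed as pKD, came from 1:1 Langmuir fits of reference- and buffer-blank-subtracted SPR data. The runs were single-cycle kinetics at 25° C in HBST/0.1% DMSO over human PSMA-Fc, captured to ~1000 RU on a peptide-coated CM5 surface and regenerated with 10 mM glycine pH 1.5.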

[3] = FACS binding, PSMA-expressing C4-2 cells, pIC50 category
[4] = PSMA SPR assay, hPSMA-Fc, 25° C., pKD category
[5] = FACS binding, C4-2 cells, competition with 50 nM PSM-0183, category
[6] = SPR, hPSMA-Fc, single cycle kinetic, 25° C., category

- IC50 [1, 3]: < 200 nM
- Kd [2, 4]: < 12.6 nM
Structure (SMILES): CC(=O)NC(C)(C)C(=O)N[C@@H](Cc1ccc(Cl)cc1)C(=O)N[C@H]1CSSC[C@@H](C(=O)N[C@H](C(=O)N[C@H](C(=O)N2CCC(CC(=O)N[C@H](CCCCNC(=O)CN3CCN(CC(=O)O)CCN(CC(=O)O)CCN(CC(=O)O)CC3)C(N)=O)CC2)[C@@H](C)O)C(C)(C)C)NC(=O)[C@H](CC(N)=O)NC(=O)C(C)(C)NC(=O)[C@H](CCCNC(=N)N)NC(=O)[C@H](CCCCN)NC1=O [PSM-0349, Ac-Aib-Pcf-[Cys-Lys-Arg-Aib-Asn-Cys]-Tle-Thr-Cmp-lys(DOTA)-NH2] (Ac-[Aib][Phe(4-Cl)]CKR[Aib]NC[Tle]T[X1][dK](DOTA)-NH2; disulfide 3-8)

- IC50 [1, 3]: 1260 to 3160 nM
- Kd [2, 4]: > 501 nM
Structure (SMILES): CC(=O)N[C@H](C(=O)NC(C)(C)C(=O)N[C@@H](Cc1ccccc1)C(=O)N[C@H]1CSSC[C@@H](C(=O)N[C@H](C(=O)N[C@H](C(=O)N[C@@H](CC(=O)O)C(N)=O)[C@@H](C)O)C(C)(C)C)NC(=O)[C@H](CC(N)=O)NC(=O)[C@H](C)NC(=O)[C@H](CCCNC(=N)N)NC(=O)[C@H](CCC(=O)O)NC1=O)[C@@H](C)O [PSM-0291, Ac-Thr-Aib-Phe-[Cys-Glu-Arg-Ala-Asn-Cys]-Tle-Thr-Asp-NH2] (Ac-T[Aib]FCERANC[Tle]TD-NH2; disulfide 4-9)

- IC50 ([1]; FACS binding, C4-2 cells, category): < 200 nM
- Kd ([2]; PSMA SPR assay, category): < 12.6 nM
Structure (SMILES): CNCCCC[C@@H]1NC(=O)[C@@H](NC(=O)[C@H](Cc2ccc(Cl)cc2)NC(=O)C(C)(C)NC(=O)[C@@H](NC(=O)CC2CCN(C(=O)CN3CCN(CC(N)=O)CCN(CC(N)=O)CCN(CC(N)=O)CC3)CC2)[C@@H](C)O)CSSC[C@@H](C(=O)N[C@H](C(=O)N[C@H](C(N)=O)[C@@H](C)O)C(C)(C)C)NC(=O)[C@H](CC(N)=O)NC(=O)C(C)(C)NC(=O)[C@H](CCCNC(=N)NC)NC1=O [PSM-0593, DOTAM-Cmp-Thr-Aib-Pcf-[Cys-Lys(Me)-Arg(Me)-Aib-Asn-Cys]-Tle-Thr-NH2] (DO3AM-[X1]T[Aib][Phe(4-Cl)]C[Lys(Me)][Arg(Me)][Aib]NC[Tle]T-NH2; disulfide 5-10)

- IC50 ([1]; pIC50 category of FACS binding, C4-2 cells): < 200 nM
- Kd ([2]; pKD category for PSMA SPR activity assay, hPSMA-Fc, 25° C.): 12.6 to 126 nM
Structure (SMILES): CCCC[C@H](NC(=O)[C@@H]1CSSC[C@H](NC(=O)[C@H](Cc2ccccc2)NC(=O)[C@H](C)NC(=O)[C@@H](NC(C)=O)[C@@H](C)O)C(=O)N[C@@H](CCCCN)C(=O)N[C@@H](CCCNC(=N)N)C(=O)N2CCC[C@H]2C(=O)N[C@@H](CC(N)=O)C(=O)N1)C(=O)N[C@H](C(=O)N[C@@H](CC(=O)O)C(N)=O)[C@@H](C)O [PSM-0460, Ac-Thr-Ala-Phe-[Cys-Lys-Arg-Pro-Asn-Cys]-Nle-Thr-Asp-NH2] (Ac-TAFCKRPNC[Nle]TD-NH2; disulfide 4-9)

Continued, compound first:

Structure (SMILES): C[C@@H](O)[C@H](NC(=O)[C@@H](NC(=O)[C@@H]1CSSC[C@H](NC(=O)[C@H](Cc2ccccc2)NC(=O)C(C)(C)NC(=O)[C@@H](NC(=O)CC2CCN(C(=O)CN3CCN(CC(=O)O)CCN(CC(=O)O)CCN(CC(=O)O)CC3)CC2)C(C)(C)C)C(=O)N[C@@H](CCCCN)C(=O)N[C@@H](CCCNC(=N)N)C(=O)NC(C)(C)C(=O)N[C@@H](CC(N)=O)C(=O)N1)C(C)(C)C)C(N)=O [PSM-0198, DOTA-Cmp-Tle-Aib-Phe-[Cys-Lys-Arg-Aib-Asn-Cys]-Tle-Thr-NH2] ({DOTA}-[X1][Tle][Aib]FCKR[Aib]NC[Tle]T-NH2; disulfide 5-10)
- IC50 [1, 5]: 1260 to 3160 nM
- Kd [2, 6]: 126 to 501 nM

Structure (SMILES): CC(=O)N[C@H](C(=O)NC(C)(C)C(=O)N[C@@H](Cc1ccc(Cl)cc1)C(=O)N[C@H]1CSSC[C@@H](C(=O)N[C@H](C(=O)N[C@H](C(N)=O)[C@@H](C)O)C(C)(C)C)NC(=O)[C@H](CC(N)=O)NC(=O)C(C)(C)NC(=O)[C@H](CCC(=O)NC(=N)N)NC(=O)[C@H](CCCCN)NC1=O)[C@@H](C)O [PSM-0189, Ac-Thr-Aib-Pcf-[Cys-Lys-Gln(Gu)-Aib-Asn-Cys]-Tle-Thr-NH2] (Ac-T[Aib][Phe(4-Cl)]CKE(Guanidino)[Aib]NC[Tle]T-NH2; disulfide 4-9)
- IC50 [1, 5]: < 200 nM
- Kd [2, 6]: < 12.6 nM

Structure (SMILES): CC(=O)N[C@H](C(=O)NC(C)(C)C(=O)N[C@@H](Cc1ccccc1)C(=O)N[C@H]1CSSC[C@@H](C(=O)N[C@H](C(=O)N[C@H](C(N)=O)[C@@H](C)O)C(C)(C)C)NC(=O)[C@H](CC(N)=O)NC(=O)[C@H](CCCCNC(=O)c2ccc(NC(=O)CN3CCN(CC(=O)O)CCN(CC(=O)O)CCN(CC(=O)O)CC3)cc2)NC(=O)[C@H](CCCNC(=N)N)NC(=O)[C@H](CCCCN)NC1=O)[C@@H](C)O [PSM-0211, Ac-Thr-Aib-Phe-[Cys-Lys-Arg-Lys(DOTA-Pab)-Asn-Cys]-Tle-Thr-NH2] (Ac-T[Aib]FCKRK([4Abz-DOTA])NC[Tle]T-NH2; disulfide 4-9)
- IC50 [1, 5]: < 200 nM
- Kd [2, 6]: < 12.6 nM
